Assay results published in PMC7822874, “Chemoprotective antimalarials identified through quantitative high-throughput screening of Plasmodium blood and liver stage parasites” (Scientific Reports, 2021).
Like-named read-outs stand apart in the source and are kept apart here.

Key:
[1] = test system: P. berghei-ANKA-GFP-LucCON liver stage parasites in HepG2-A16-CD81EGFP cells; test: P. berghei liver stage Pb-Luc assay, Method 1 (UCSD, 1536-well); type: cell-based, Plasmodium berghei; details: for activity at 1 µM / activity at 3 µM: 48 h, average of 2 wells on a 1536 well plate; for activity at 1 µM: 1 uM (compounds provided at 10 mM); for activity at 3 µM: 3 uM (compounds provided at 10 mM)
[2] = test system: Plasmodium falciparum Dd2 asexual blood stage parasites; test: microbe, parasite or virus in culture; set-up: species or system Plasmodium falciparum Dd2 in human erythrocytes; single determination (one 11-point concentration-response curve); details: Plasmodium falciparum, DD2, Erythrocyte, 72 h
in vitro = details: human
[3] = Plasmodium berghei, column 11, read-out: Pb-Luc (P. berghei liver stage), % of control, lower concentration, first repeat
[4] = Plasmodium berghei, column 12, read-out: Pb-Luc (P. berghei liver stage), % of control, lower concentration, second repeat
[5] = Plasmodium berghei, column 8, read-out: Pb-Luc (P. berghei liver stage), % of control, higher concentration, first repeat
[6] = Plasmodium berghei, column 9, read-out: Pb-Luc (P. berghei liver stage), % of control, higher concentration, second repeat
[7] = HepG2-A16-CD81EGFP cells, uninfected

CCOC(=O)c1nnn(-c2nonc2N)c1-c1ccc(C)cc1 [MLS000519435-01]
activity at 1 µM [1, 3]: 122%
activity at 1 µM [1, 4]: 101%
activity at 3 µM [1, 5]: 135%
activity at 3 µM [1, 6]: 119%
AC50 ([2]; read-out: AC50): 5.31 µM

Cc1ccc(CN(C)C(=O)c2cc(COc3ccc(F)cc3Cl)on2)o1 [MLS000734222-01]
viability at 66 h (in vitro; [7]): 101%

CN(C(=O)c1ccc(NC(=O)Cc2cccc(NC(=O)C3CCCN(C(=O)CCc4ccccc4)C3)c2)cc1)C1CCCC1 (stereo not drawn) [MLS002402746-01]
viability at 48 h (in vitro; [7]): 104%
viability at 48 h, 1 µM (in vitro; [7]): 104%

COc1ccc2cc3cc(C(=O)NCCC(C)C)oc3nc2c1 [MLS001199461-01]
viability at 48 h, 1 µM (in vitro; [7]): 101%
viability at 48 h, 3 µM (in vitro; [7]): 101%

COc1ccccc1NC(=O)Cn1c(C)ccc(N[S+](=O)([O-])c2ccccc2)c1=O [NCGC00430868-01]
viability at 66 h (in vitro; [7]): 109%

Cc1cccc(CSc2nn3c(=O)c(C)nnc3s2)c1 [MLS000724933-01]
viability at 48 h, 1 µM (in vitro; [7]): 115%
viability at 48 h, 3 µM (in vitro; [7]): 100%

CC(C)(C)NC(=O)Cn1ccc(=N)c2ccccc21 [MLS000068809-01]
viability at 48 h, 1 µM (in vitro; [7]): 99%
viability at 48 h, 3 µM (in vitro; [7]): 97%

Cc1ccc2c(c1)-c1c(ssc1=S)C(C)(C)N2C(=O)c1ccco1 [MLS000525939-01]
viability at 48 h, 1 µM (in vitro; [7]): 100%
viability at 48 h, 3 µM (in vitro; [7]): 100%

Cc1cccc(Cl)c1/N=C(\S)N1CCN(c2ccc([N+](=O)[O-])cn2)CC1 [MLS000833563-01]
viability at 48 h, 1 µM (in vitro; [7]): 95%
viability at 48 h, 3 µM (in vitro; [7]): 93%

CCOC(=O)Cn1c2c(c(=N)c3c1CCC3)CCCC2 [MLS000702567-01]
viability at 66 h (in vitro; [7]): 106%

Cc1ccc(NN=C2C=CC(=O)c3ncccc32)cc1 [MLS000585898-01]
viability at 48 h, 1 µM (in vitro; [7]): 93%
viability at 48 h, 3 µM (in vitro; [7]): 88%

CN(C)S(=O)(=O)Oc1ccsc1C(=O)Nc1cccc(Cl)c1 [MLS000327935-01]
viability (in vitro): 102%

O=C(C[n+]1cc(-c2ccccc2)n2c1CCC2)c1cccs1 [MLS001003812-01]
viability at 48 h, 1 µM (in vitro; [7]): 94%
viability at 48 h, 3 µM (in vitro; [7]): 86%

CC(C)c1ccc(O)c(CN2CCN(c3ccccc3)CC2)c1 [MLS000084718-01]
activity at 1 µM [1, 3]: 105%
activity at 1 µM [1, 4]: 80%
activity at 3 µM [1, 5]: 97%
activity at 3 µM [1, 6]: 96%
AC50 [2]: 1.33 µM

O=C(Cc1c[nH]c2ncc(-c3ccc(Cl)cc3)cc12)NCc1cccnc1 [NCGC00412438-01]
Max Resp (signal direction of the dose response) ([1]; Method 1, Decrease = decreasing P. berghei viability with dose, Increase = increasing signal, Inactive = no dose response): Decrease
AC50 ([1]; Method 1, Hill fit, 50% of maximum activity response, read-out: AC50): 2 µM
Log AC50 (M) ([1]; Method 1, log10 of molar AC50 from Hill fit): -5.700 M
AC50 ([1]; Plasmodium berghei, Method 1, Hill fit, 50% of maximum activity response, read-out: AC50): 1.26 µM
AC50 ([1]; Plasmodium berghei, Method 1, log10 of molar AC50 from Hill fit, read-out: Log AC50 (converted)): 1.26 µM
AC50 ([2]; read-out: AC50): 1.72 µM

COc1cccc(OCCn2cc(C(=O)c3ccco3)c3ccccc32)c1 [MLS000050800-01]
activity at 1 µM [1, 3]: 134%
activity at 1 µM [1, 4]: 132%
activity at 3 µM [1, 5]: 134%
activity at 3 µM [1, 6]: 113%

Cc1nc2c(n1C1CCCCC1)C(=O)c1ccccc1C2=O [MLS000564113-01]
activity at 1 µM [1, 3]: 95%
activity at 1 µM [1, 4]: 107%
activity at 3 µM [1, 5]: 85%
activity at 3 µM [1, 6]: 94%

Oc1c(Br)cc(Br)cc1CN1CCN(Cc2ccccc2)CC1 [MLS000530313-01]
activity at 1 µM [1, 3]: 129%
activity at 1 µM [1, 4]: 112%
activity at 3 µM [1, 5]: 102%
activity at 3 µM [1, 6]: 112%
AC50 ([2]; read-out: AC50): 1.06 µM

Cc1cn2nc(C(=O)Nc3ccc(N(C)C)cc3)cc2c(N(C)Cc2ccccc2)n1 [NCGC00454159-01]
AC50 ([2]; read-out: AC50): 15 µM

CCOc1cc(C(=O)N2CCC(CC3CC(c4ccc(Cl)cc4)=NO3)(C(=O)NCC3CCCCC3)CC2)cc(OCC)c1OCC (stereo not drawn) [MLS001143937-01]
AC50 ([2]; read-out: AC50): 0.841 µM

COc1cc(C(=O)NC2CCN(c3cc(-c4ccccc4)n[nH]3)CC2)cc(OC)c1OC [NCGC00436906-01]
AC50 ([2]; read-out: AC50): 5.96 µM

Cc1ccccc1CN1C(=O)C(C)N=C(c2ccccc2)c2ccccc21 (stereo not drawn) [NCGC00140509-01]
AC50 [2]: 15 µM

COc1cncc(Nc2cnc3ccc(-c4ccc(F)cc4)nn23)c1 [NCGC00412595-01]
AC50 ([2]; read-out: AC50): 3.06 µM

Cc1nc(-c2cccc(Cl)c2)n(CC(=O)Nc2ccc(C(F)(F)F)cc2)c(=O)c1CCO [NCGC00471081-01]
AC50 ([2]; read-out: AC50): 13.3 µM

Cc1ccc(S(=O)(=O)Nc2ccc(-c3cn4ccc(C)cc4n3)cc2)cc1 [MLS000579534-01]
AC50 ([2]; read-out: AC50): 6.68 µM

Cc1ccc(CN2CC[C@@H]3C(=O)NCCCCCCN(Cc4ccncc4)[C@@H]3C2)o1 [NCGC00467213-01]
AC50 ([2]; read-out: AC50): 2.11 µM

OCc1ccc(CN2CCCC(CCc3c(F)cccc3F)C2)o1 (stereo not drawn) [NCGC00426759-01]
AC50 ([2]; read-out: AC50): 4.22 µM

CCn1c(=O)c(=O)n(CC)c2cc(N3CCCCC3)c(NC(=O)c3ccc(Cl)cc3)cc21 [NCGC00107440-01]
AC50 ([2]; read-out: AC50): 7.5 µM

O=C(C1CC1)N1CCc2cc(Br)cc([S+](=O)([O-])N3CCN(c4cccc(C(F)(F)F)c4)CC3)c21 [NCGC00104294-01]
AC50 ([2]; read-out: AC50): 4.73 µM

COc1ccc(CN2CCCCCNC(=O)CC2c2ccccc2)cc1Cn1ccnc1 (stereo not drawn) [NCGC00465444-01]
AC50 ([2]; read-out: AC50): 9.44 µM

CCOC(=O)COn1c(-n2nc(C)cc2C)nc2ccccc2c1=O [MLS001215150-01]
AC50 ([2]; read-out: AC50): 9.44 µM

Cc1nn(-c2ccccc2)c2c1C(O)n1c(nc3ccccc31)S2 (stereo not drawn) [MLS000081954-01]
AC50 ([2]; read-out: AC50): 5.31 µM

O=[S+]([O-])(c1cccnc1)N1CCC2(CC1)NCCc1c2[nH]c2ccccc12 [NCGC00460719-01]
AC50 ([2]; read-out: AC50): 16.8 µM

CN(C)CC1CSCCC1(O)c1ccccc1Cl (stereo not drawn) [MLS000546783-01]
AC50 ([2]; read-out: AC50): 5.96 µM

CC(=O)N1c2c(cc(Br)cc2[S+](=O)([O-])N2CCN(c3cc(C)ccc3C)CC2)CC1C (stereo not drawn) [NCGC00104358-01]
AC50 ([2]; read-out: AC50): 11.9 µM

Cc1cccc(N2CCN(C(=O)CCc3nnc4n(CC(C)C)c(=O)c5ccccc5n34)CC2)c1C [NCGC00112784-01]
AC50 ([2]; read-out: AC50): 3.35 µM

Cc1ccc(OCCSc2nc3ccc(NC(=O)c4cccs4)cc3s2)cc1 [NCGC00118830-01]
AC50 ([2]; read-out: AC50): 2.99 µM

Cc1ccc(NC(=O)c2c(C)oc3ccc(O)c(CN4CCCCCC4)c23)c(C)c1 [NCGC00115658-01]
AC50 ([2]; read-out: AC50): 4.73 µM

Cc1cnc(CC2CCCN([S+](=O)([O-])c3ccccc3)C2)n1CC1CC1 (stereo not drawn) [NCGC00469674-01]
AC50 ([2]; read-out: AC50): 6.68 µM

Cc1nnc2c(N3CCN(c4ccccc4)CC3)nc3ccc(C(=O)c4ccccc4)cc3n12 [NCGC00107547-01]
AC50 ([2]; read-out: AC50): 0.841 µM

COc1ccc(CC(=O)NCc2ccccn2)cc1OC [MLS000039135-01]
AC50 ([2]; read-out: AC50): 7.5 µM

CC(C)(C)NC(=O)c1ccc(-c2nnc3ccc(NC(=O)C4CC4)cn23)cc1 [NCGC00429854-01]
AC50 ([2]; read-out: AC50): 9.44 µM

Cc1ccccc1N(C)C1CN(Cc2ccccc2)C1 [NCGC00476681-01]
AC50 ([2]; read-out: AC50): 19.3 µM

CCN(CC)c1cc(CCC(=O)NCCN(C)C2CCCCC2)ccn1 [NCGC00469386-01]
AC50 ([2]; read-out: AC50): 13.3 µM

CC(C)C(=O)NC(c1ccc([N+](=O)[O-])cc1)c1c(O)ccc2ccccc12 (stereo not drawn) [MLS000571279-01]
AC50 ([2]; read-out: AC50): 13.3 µM

CCc1c(C)c2ccc3c(c2oc1=O)CN(Cc1ccccc1)CO3 [NCGC00125086-01]
AC50 ([2]; read-out: AC50): 2.11 µM

Cc1cccc(Nc2cc(C)c3c(O)cccc3n2)c1C [MLS000586980-01]
AC50 ([2]; read-out: AC50): 4.73 µM

CCCCc1cc(=O)oc2cc(C)cc(OCC(=O)Nc3cccnc3)c12 [MLS001160046-01]
AC50 ([2]; read-out: AC50): 0.596 µM

COc1ccccc1N1CCN(C(c2cc3ccc(C)cc3nc2O)c2nnnn2C2CCCC2)CC1 (stereo not drawn) [MLS000077380-01]
AC50 ([2]; read-out: AC50): 7.5 µM

CCOC(=O)C1CCN(c2cc(=O)n(-c3ccccc3Cl)c(=O)[nH]2)CC1 [MLS000045867-01]
AC50 ([2]; read-out: AC50): 8.41 µM

CCOC(=O)c1ccc(NC2=CC(c3ccc(F)cc3)N(c3ccc(C(=O)OCC)cc3)C2=O)cc1 (stereo not drawn) [NCGC00102598-01]
AC50 ([2]; read-out: AC50): 8.41 µM

CCN(CC)c1cc(C)c2cc(NC(=O)c3ccc(Br)o3)ccc2n1 [MLS000519820-01]
AC50 ([2]; read-out: AC50): 6.68 µM

COc1ccc(N2CCN(C(c3cc4ccc(C)cc4nc3O)c3nnnn3C3CCCC3)CC2)cc1 (stereo not drawn) [MLS000077379-01]
AC50 ([2]; read-out: AC50): 6.68 µM

CN1CCN(c2ccc(-c3noc([C@@H]4CCCN4C4CCCCC4)n3)cn2)CC1 [NCGC00392835-01]
AC50 ([2]; read-out: AC50): 19.3 µM

CC(C)(C)n1nnnc1C(c1cccnc1)N(Cc1ccccc1)Cc1ccco1 (stereo not drawn) [MLS000528003-01]
AC50 ([2]; read-out: AC50): 5.31 µM

Cc1noc(C)c1-c1cc2cc(CN(C)C)oc2c(NCCOc2ccccc2)n1 [NCGC00417493-01]
AC50 ([2]; read-out: AC50): 15.3 µM
